From US20100267775A1, “OXADIAZOLIDINEDIONE COMPOUND” (priority 2007, published 2010) come the findings set out here.

For assay [1], the target named is T1, human GPR40 (Homo sapiens, UniProt O14842, R211H).
T1 construct: expressed in transfected cells; host or cells: CHO dhfr- cells stably transfected with plasmid pEF-BOS-dhfr-GPR40
Put plainly: Measurement of GPR40 agonistic activity (intracellular calcium, FLIPR, CHO cell line expressing human GPR40). It is filed as cell-based. The note with it: change in fluorescence intensity one minute after measurement. The text has this: Test Method 1: Measurement of GPR40 Agonistic Activity i) Cloning of Human GPR40
In accordance with procedures as described below, the full-length sequence of GPR40 was obtained by a polymerase chain reaction (PCR) to set human genomic DNA (Clontech) as a template.
Oligonucleotide which consists of a base sequence represented by SEQ ID NO. 1 was used as a forward primer, and oligonucleotide which consists of a base sequence represented by SEQ ID NO. 2 was used as a reverse primer. To each 5′ terminus of the forward primer and the reverse primer described above, a base sequence including the XbaI recognition site is attached. In the PCR, using Taq DNA polymerase (Ex Taq DNA polymerase; TAKARA BIO INC.), a cycle consisting of 94° C. (15 sec)/55° C. (30 sec)/72° C. (1 min) was repeated 30 times in the presence of 5% DMSO. As a result, the DNA fragment of about 0.9 kbp was amplified. This DNA fragment was digested with XbaI, followed by inserting into the XbaI site of plasmid pEF-BOS-dhfr (Nucleic Acids Research, 18, 5322, 1990) to obtain plasmid pEF-BOS-dhfr-GPR40.
The base sequence of GPR40 gene in plasmid pEF-BOS-dhfr-GPR40 was decided by a dideoxy terminator method using a DNA sequencer (ABI377 DNA Sequencer; Applied Biosystems). The base sequence of GPR40 gene was the same with the base sequence represented by SEQ ID NO. 3. The base sequence represented by SEQ ID NO. […] 4 […]
ii) Preparation of GPR40 Stable Expression Cell
A CHO dhfr cell (CHO cell deleting a dihydrofolate reductase (dhfr) gene) was used as a cell in which GPR 40 protein was expressed. In addition, the plasmid pEF-BOS-dhfr-GPR40 obtained in the above i) was used as an expressing plasmid to express GPR40 protein. To a 6 well plate (Asahi Techno Glass Corp.), the CHO dhfr cells were seeded to become 80 to 90% confluent in an aMEM medium having 10% fetal calf serum (FCS), and cultivated overnight. Then, 2 μg of plasmid pEF-BOS-dhfr-GPR40 per well was transferred generetically thereto using a transfection reagent (Lipofectamine 2000; Invitrogen Corporation). After cultivating for 24 hours subsequent to the gene transfer, the cell were diluted and reseeded. On this occasion, the αMEM medium having 10% FCS was changed for an αMEM medium having 10% FCS and no nucleic acid. After 20 days cultivation, formed cell colonies were collected respectively and cultivated, thereby obtaining CHO cells stably expressing GPR40. Among these, cells high-reactive to an oleic acid and a linoleic acid which were intrinsic ligands were selected. […]
iii) Measurement of GPR40 Agonistic Activity
The GPR40 agonistic activity was measured with fluctuation of the intracellular calcium concentration as an index by FLIPR (registered trademark, Molecular Devices Corporation). Hereinafter, test methods will be described.
A CHO cell line expressing human GPR40 was seeded with 6×10^3 per well to a 384-well black plate (Becton, Dickinson and Company), and cultivated in a CO2 incubator overnight. For a luminescent pigment, a Calcium-3 assay kit (Molecular Devices Corporation) was used, and dissolved in 10 ml of a HBSS-HEPES buffer (PH7.4, 1×HBSS, 20 mM HEPES, Invitrogen Corporation) for a bottle. 35.68 mg of probenecid (Sigma) was dissolved in 250 μl of 1M NaOH, and then 250 μl of a HBSS-HEPES buffer was added to blend. 16 ml of a HBSS-HEPES buffer, 640 μl of the luminescent pigment and 32 μl of probenecid were added to blend for a solution of the luminescent pigment per plate. The medium of the plate was removed, 40 μl of the solution of the luminescent pigment per well was dispensed, followed by incubating at room temperature for 2 hours. A compound to be inspected was dissolved in DMSO, and diluted with a HBSS-HEPES buffer. A reaction was initiated by 10 μl of dispensation, the fluctuation of the intracellular calcium concentration was measured by FLIPR. An EC50 value of the compound to be inspected was calculated from the dose-response curve of change in fluorescence intensity one minute after measurement.

In assay [2] the test system is normal mice. As to the kind of experiment: Single oral glucose tolerance test on normal mice. It is filed as in vivo. The conditions noted are these: Mus musculus; for inhibition in vivo at 10 mg/kg: 0.5 h, read-out: Reduction rate of blood glucose level (%); for minimal effective dose: read-out: MED. On the procedure:
Test Method 3: Single Oral Glucose Tolerance Test on Normal Mice
The anti-hyperglycemic action after glycemic load of the compound to be inspected was examined using normal mice. Hereinafter, the test method will be described.
Male ICR mice which was preparedly reared for one week (6-week-old) was fasted overnight, and used as an animal to be inspected. A compound to be inspected was 0.5% methylcellulose suspension, and the suspension was orally administered 30 minutes before the glucose (2 g/kg) load. With regard to some compounds to be inspected, prior blood drawing was performed (0 min value), and blood glucose levels were measured at 5, 15, 30, 60 and 120 minutes later glucose load when the compound to be inspected was orally administered. A control group was given 0.5% methylcellulose. The evaluation was carried out in the following manner. (Evaluation 1) The reduction rate of blood glucose levels after glucose loading (%) with respect to the control group was calculated at a point of glucose load which is 30 minutes after the oral administration of 10 mg/kg of the compound to be inspected. […] Ex represents example compound numbers.
(Evaluation 2) The reduction rate of blood glucose levels after glucose loading (%) with respect to the control group was calculated at a point of glucose load which is 30 minutes after the oral administration of 10, 3, 1, 0.3 or 0.1 mg/kg of the compound to be inspected. […] Ex represents example compound numbers. In addition, MED describing “below” in Table 3 means that a test was not carried out due to less than dose described.
The area under the blood concentration-time curve (AUC) of blood glucose levels for 0 to 120 minute(s) was calculated from the blood glucose levels before the blood drawing, and the blood glucose levels at 5, 15, 30, 60, and 120 minutes after the glucose load when 30, 10, 3, 1 or 0.3 mg/kg of the compound to be inspected was orally administered.

T1 sequence (O14842 whole entry R211H): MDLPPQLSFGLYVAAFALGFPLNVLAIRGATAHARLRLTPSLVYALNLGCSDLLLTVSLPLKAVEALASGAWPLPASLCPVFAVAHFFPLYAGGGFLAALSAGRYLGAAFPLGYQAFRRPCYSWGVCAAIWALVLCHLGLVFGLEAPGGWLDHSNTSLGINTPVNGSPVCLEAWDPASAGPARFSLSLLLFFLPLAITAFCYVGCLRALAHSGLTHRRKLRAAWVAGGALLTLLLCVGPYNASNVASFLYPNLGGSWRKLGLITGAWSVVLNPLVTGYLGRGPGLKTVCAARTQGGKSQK

In the case of `Cc1cc(OC[C@@H](O)CO)cc(C)c1-c1cccc(COc2ccc(Cn3oc(=O)[n-]c3=O)cc2)c1C.[Na+]` [Example 7], the EC50 in assay [1] turned out to be 410 nM. In addition, in assay [2], the inhibition in vivo at 10 mg/kg is 30% and the minimal effective dose is 10 mg/kg.

As to `Cc1cc(OCCCNC(=O)C2CC2)cc(C)c1-c1cccc(COc2ccc(Cn3oc(=O)[n-]c3=O)cc2)c1C.[Na+]` [Example 21], in assay [1], the EC50 is 600 nM. Further, in assay [2], the inhibition in vivo at 10 mg/kg was determined as 26% and the minimal effective dose was determined as 3 mg/kg.

For `Cc1cc(OC[C@H](O)CO)cc(C)c1-c1cccc(COc2ccc(Cn3oc(=O)[n-]c3=O)cc2)c1C.[Na+]` [Example 26], the EC50 in assay [1] was 410 nM. In assay [2], the inhibition in vivo at 10 mg/kg amounted to 27% and the minimal effective dose is 10 mg/kg.

Turning to `Cc1c(COc2ccc(Cn3oc(=O)[n-]c3=O)cc2)cccc1-c1cccc(OCCC(C)(C)O)c1C.[Na+]` [Example 27], in assay [1], the EC50 worked out at 230 nM. Besides, in assay [2], the inhibition in vivo at 10 mg/kg is 42% and the minimal effective dose was determined as 1 mg/kg.

Regarding `Cc1cc(-c2cccc(COc3ccc(Cn4oc(=O)[n-]c4=O)cc3)c2C)c(C)cc1OCCC(C)(C)O.[Na+]` [Example 31], the EC50 in assay [1] came to 69 nM. Moreover, in assay [2], the inhibition in vivo at 10 mg/kg turned out to be 50% and the minimal effective dose is 1 mg/kg.

Consider `Cc1c(COc2ccc(Cn3oc(=O)[n-]c3=O)cc2)cccc1-c1ccc(OCCC(C)(C)O)c(C)c1C.[Na+]` [Example 32], for which the EC50 in assay [1] was found to be 68 nM. Further, in assay [2], the inhibition in vivo at 10 mg/kg amounted to 47% and the minimal effective dose was found to be 1 mg/kg.

Regarding `Cc1cc(OCC[C@@H](C)O)cc(C)c1-c1cccc(COc2ccc(Cn3oc(=O)[n-]c3=O)cn2)c1C.[Na+]` [Example 44], the EC50 in assay [1] amounted to 190 nM. Further, in assay [2], the inhibition in vivo at 10 mg/kg came to 34% and the minimal effective dose is < 0.3 mg/kg.

On to `Cc1cc(OCC[C@H](C)O)cc(C)c1-c1cccc(COc2ccc(Cn3oc(=O)[n-]c3=O)cn2)c1C.[Na+]` [Example 45], for which the EC50 in assay [1] was found to be 280 nM. Besides, in assay [2], the inhibition in vivo at 10 mg/kg turned out to be 35% and the minimal effective dose was determined as 1 mg/kg.

Turning to `COC[C@@H](O)COc1cc(C)c(-c2cccc(COc3ccc(Cn4oc(=O)[n-]c4=O)cc3)c2C)c(C)c1.[Na+]` [Example 56], the EC50 in assay [1] was 820 nM. Further, in assay [2], the inhibition in vivo at 10 mg/kg came out at 29% and the minimal effective dose came to 3 mg/kg.

For `Cc1cc(OCCC(C)(C)O)nc(C)c1-c1cccc(COc2ccc(Cn3oc(=O)[n-]c3=O)cc2)c1C.[Na+]` [Example 60], the EC50 in assay [1] came to 160 nM. Further, in assay [2], the inhibition in vivo at 10 mg/kg was 45% and the minimal effective dose was < 3 mg/kg.

As for `Cc1cc(-c2cccc(COc3ccc(Cn4oc(=O)[n-]c4=O)cc3)c2C)c(C)cc1OCCO.[Na+]` [Example 63], the EC50 in assay [1] was found to be 380 nM. In addition, in assay [2], the inhibition in vivo at 10 mg/kg amounted to 22% and the minimal effective dose was < 1 mg/kg.

As for `Cc1cc(OC[C@@H](O)CO)cc(C)c1-c1cccc(CNc2ccc(Cn3oc(=O)[n-]c3=O)cc2)c1C.[Na+]` [Example 68], the EC50 in assay [1] stood at 22 nM. In addition, in assay [2], the inhibition in vivo at 10 mg/kg amounted to 23% and the minimal effective dose stood at 3 mg/kg.

In the case of `Cc1cc(OC[C@H](O)CO)cc(C)c1-c1cccc(CNc2ccc(Cn3oc(=O)[n-]c3=O)cc2)c1C.[Na+]` [Example 69], the concentration giving a half-maximal response (EC50) in assay [1] was determined as 69 nM. In assay [2], the inhibition in vivo at 10 mg/kg came to 34% and the minimal effective dose worked out at 1 mg/kg.

As to `Cc1cc(OCCO)cc(C)c1-c1cccc(CNc2ccc(Cn3oc(=O)[n-]c3=O)cc2)c1C.[Na+]` [Example 70], in assay [1], the EC50 was determined as 70 nM. Moreover, in assay [2], the inhibition in vivo at 10 mg/kg was 31% and the minimal effective dose was 10 mg/kg.

For `CO[C@@H](CO)COc1cc(C)c(-c2cccc(COc3ccc(Cn4oc(=O)[n-]c4=O)cc3)c2C)c(C)c1.[Na+]` [Example 74], the EC50 in assay [1] turned out to be 320 nM. Besides, in assay [2], the inhibition in vivo at 10 mg/kg came out at 23% and the minimal effective dose worked out at 3 mg/kg.

As for `Cc1cc(OCCO)cc(C)c1-c1cccc(CNc2ccc(Cn3oc(=O)[n-]c3=O)cn2)c1C.[Na+]` [Example 80], in assay [1], the EC50 was 250 nM. In addition, in assay [2], the inhibition in vivo at 10 mg/kg stood at 26% and the minimal effective dose amounted to 10 mg/kg.

Consider `Cc1cc(OCC[C@@H](C)O)nc(C)c1-c1cccc(CNc2ccc(Cn3oc(=O)[n-]c3=O)cc2)c1C.[Na+]` [Example 81], for which the EC50 in assay [1] was 160 nM. In assay [2], the inhibition in vivo at 10 mg/kg amounted to 33% and the minimal effective dose is < 3 mg/kg.

Consider `Cc1cc(OCC[C@@H](C)O)nc(C)c1-c1cccc(COc2ccc(Cn3oc(=O)[n-]c3=O)cc2)c1C.[Na+]` [Example 84], for which the EC50 in assay [1] amounted to 280 nM. Also, in assay [2], the inhibition in vivo at 10 mg/kg was 35% and the minimal effective dose is < 3 mg/kg.

Consider `Cc1cc(OCCO)c(F)cc1-c1cccc(CNc2ccc(Cn3oc(=O)[n-]c3=O)cc2)c1C.[Na+]` [Example 85], for which the EC50 in assay [1] is 420 nM. In assay [2], the inhibition in vivo at 10 mg/kg was 24% and the minimal effective dose was found to be 3 mg/kg.

Take `Cc1cc(-c2cccc(CNc3ccc(Cn4oc(=O)[n-]c4=O)cc3)c2C)c(C)nc1OCCO.[Na+]` [Example 89]: the EC50 in assay [1] turned out to be 110 nM. Further, in assay [2], the inhibition in vivo at 10 mg/kg was 25% and the minimal effective dose amounted to 3 mg/kg.

With `Cc1cc(OCCO)c(F)cc1-c1cccc(COc2ccc(Cn3oc(=O)[n-]c3=O)cc2)c1C.[Na+]` [Example 94], in assay [1], the EC50 amounted to 640 nM. Further, in assay [2], the inhibition in vivo at 10 mg/kg was 39% and the minimal effective dose came to 3 mg/kg.

In the case of `Cc1cc(-c2cccc(CNc3ccc(Cn4oc(=O)[n-]c4=O)cc3)c2C)c(C)cc1OC[C@@H](O)CO.[Na+]` [Example 96], the EC50 in assay [1] was determined as 190 nM. Besides, in assay [2], the inhibition in vivo at 10 mg/kg came out at 23% and the minimal effective dose stood at 10 mg/kg.

For the compound `Cc1cc(-c2cccc(CNc3ccc(Cn4oc(=O)[n-]c4=O)cc3)c2C)c(C)cc1OC[C@H](O)CO.[Na+]` [Example 97], the EC50 in assay [1] was found to be 190 nM. Further, in assay [2], the inhibition in vivo at 10 mg/kg was 29% and the minimal effective dose came out at 10 mg/kg.

For the compound `Cc1c(CNc2ccc(Cn3oc(=O)[nH]c3=O)cc2)cccc1-c1cccc(OCCO)c1C` [Example 107], the EC50 in assay [1] turned out to be 93 nM.
